Assays:
[1] = Excerpt: The molecular formula for bisacodyl is (C22H19NO4), and the molecular weight is 361.39 gram/mole.
[2] = Water solubility (qualitative statement); assay type: physicochemical
Excerpt: Ready-to-use bisacodyl preparations have a short shelf-life (i.e., less than 18 months), can experience settling, and result in waste (e.g., a significant portion of the drug remains in the package). There is a need in the art for a ready-to-use bisacodyl preparation with a longer shelf life and less wasteful apparatus for delivery into the colon.

[3] = cited from earlier work

Compound	aqueous molar solubility [1] [µM]	water solubility [2]	time to have an effect ([3]; administered orally, 5-10 milligrams) [h]	time in which usually effective ([3]; administered rectally in suppository form, 10 mg) [min]
CC(=O)Oc1ccc(C(c2ccc(OC(C)=O)cc2)c2ccccn2)cc1 [Bisacodyl, 4,4′-(pyridin-2-ylmethylene)bis(4,1-phenylene) diacetate]	3.4	poor water solubility	6 to 12	15 to 60
Oc1ccc(C(c2ccc(O)cc2)c2ccccn2)cc1 [desacetyl bisacodyl]		poor water solubility		

Source: patent US9993426B2, “Bisacodyl compositions and delivery apparatus” (C.B. FLEET COMPANY INCORPORATED, priority 2015, dated 2018)
